Measurements: the supplement of paper PMC10883282
± gives the standard deviation of the averaged measurements.

Test system: SK-LMS-1
Experiment: relative viability vs DMSO control (72 h) (fraction); higher = more viable cells
Procedure, shortened: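 Sarcoma cell lines were seeded in 384-well plates at densities set to reach 80–90% confluence. After 24 h, 2.5 µl of serially diluted compound was added (source plates 10 mM to 0.0002 mM), and plates were held 72 h at 37 °C, 5% CO2, with 0.1% DMSO vehicle and a 5 µM positive control. Relative viability came from ATPLite readings as percent growth, averaged over up to triplicate wells. Data were rescaled so full viability equals 1 and none equals 0.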

Structure (SMILES)	relative viability (0.00017 µM)	relative viability (0.00051 µM)	relative viability (0.00152 µM)	relative viability (0.00457 µM)	relative viability (0.01372 µM)	relative viability (0.04115 µM)	relative viability (0.1235 µM)	relative viability (0.3704 µM)	relative viability (1.111 µM)	relative viability (3.333 µM)	relative viability (10 µM)	relative viability (2 pM)	relative viability (5 pM)	relative viability (15 pM)	relative viability (50 pM)	relative viability (0.00014 µM)	relative viability (0.00041 µM)	relative viability (0.0012 µM)	relative viability (0.0037 µM)	relative viability (0.011 µM)	relative viability (200 fM)	relative viability (600 fM)
CC(C)NC(=O)C1CCC(n2c(NC(=O)c3ccc(F)cc3)nc3ccc(CN4CCC(C(C)(C)O)CC4)cc32)CC1 (stereo not given) [Belizatinib]	1.05 ± 0.024	1.06 ± 0.021	1.06 ± 0.039	1.07 ± 0.04	1.07 ± 0.069	1.11 ± 0.046	1.09 ± 0.023	1.04 ± 0.074	0.949 ± 0.05	0.758 ± 0.018	0.38 ± 0.021											
C=CC(=O)N1CCC[C@@H](n2nc(-c3ccc(Oc4ccccc4)cc3)c3c(N)ncnc32)C1 [Ibrutinib]	1.04 ± 0.048	1.01 ± 0.058	1.02 ± 0.045	1.03 ± 0.04	1.04 ± 0.015	1.03 ± 0.016	1.05 ± 0.055	1.05 ± 0.028	1.05 ± 0.012	0.9551 ± 0.0066	0.693 ± 0.032											
O=C(Cc1ccc(-c2ccc(OCCN3CCOCC3)cc2)cn1)NCc1ccccc1 [KX2-391]	1.03 ± 0.047	1.02 ± 0.02	1.05 ± 0.019	1 ± 0.038	0.99 ± 0.038	0.704 ± 0.034	0.537 ± 0.023	0.361 ± 0.0063	0.338 ± 0.021	0.344 ± 0.018	0.333 ± 0.0098											
CC(=O)Nc1cccc(-n2c(=O)n(C3CC3)c(=O)c3c(Nc4ccc(I)cc4F)n(C)c(=O)c(C)c32)c1 [Trametinib]	1.01 ± 0.027	1.02 ± 0.06	1.06 ± 0.03	0.905 ± 0.034	0.575 ± 0.025	0.399 ± 0.01	0.327 ± 0.0053	0.27 ± 0.0086	0.25 ± 0.0039	0.225 ± 0.0081	0.193 ± 0.0022											
COc1cc2nccc(Oc3ccc(NC(=O)Nc4cc(C)on4)c(Cl)c3)c2cc1OC [Tivozanib]	1.01 ± 0.022	0.999 ± 0.029	1.05 ± 0.04	1.05 ± 0.037	1.03 ± 0.038	0.9926 ± 0.0016	0.989 ± 0.036	1.08 ± 0.044	1.16 ± 0.043	0.908 ± 0.058	0.462 ± 0.015											
COc1cc2c(cc1O)CCN[C@]21CS[C@@H]2c3c(OC(C)=O)c(C)c4c(c3[C@H](COC1=O)N1[C@@H]2[C@H]2c3c(cc(C)c(OC)c3O)C[C@@H]([C@@H]1O)N2C)OCO4 [Trabectedin]												1.06 ± 0.08	1.04 ± 0.026	1.03 ± 0.043	1.06 ± 0.045	1.07 ± 0.052	0.848 ± 0.04	0.255 ± 0.014	0.332 ± 0.006	0.35 ± 0.014	1.03 ± 0.076	1.06 ± 0.048
CNC(=O)c1cc(Oc2ccc(NC(=O)Nc3ccc(Cl)c(C(F)(F)F)c3)c(F)c2)ccn1 [Regorafenib]	1.12 ± 0.046	1.11 ± 0.018	1.12 ± 0.082	1.11 ± 0.03	1.17 ± 0.053	1.08 ± 0.073	1.11 ± 0.079	1.05 ± 0.036	0.938 ± 0.066	0.719 ± 0.035	0.0852 ± 0.017											
C[C@@H]1CCN(C(=O)CC#N)C[C@@H]1N(C)c1ncnc2[nH]ccc12 [Tofacitinib]	1.08 ± 0.053	1.05 ± 0.057	1.1 ± 0.057	1.11 ± 0.042	1.09 ± 0.064	1.07 ± 0.031	1.062 ± 0.0089	1.07 ± 0.022	1.07 ± 0.039	1.03 ± 0.039	0.902 ± 0.056											
COc1cc2c(Oc3ccc4[nH]c(C)cc4c3F)ncnc2cc1OCCCN1CCCC1 [Cediranib]	1.01 ± 0.011	1.02 ± 0.028	1.02 ± 0.038	1.03 ± 0.052	0.989 ± 0.025	1.02 ± 0.042	0.98 ± 0.017	0.977 ± 0.025	0.925 ± 0.013	0.911 ± 0.029	0.462 ± 0.066											
CC[C@H](Nc1ncnc2[nH]cnc12)c1nc2cccc(F)c2c(=O)n1-c1ccccc1 [Idelalisib]	1.02 ± 0.019	1.02 ± 0.046	1.02 ± 0.084	1.01 ± 0.028	0.991 ± 0.034	1.02 ± 0.041	0.972 ± 0.049	0.929 ± 0.035	0.838 ± 0.049	0.71 ± 0.03	0.618 ± 0.025											
Cc1cc(Nc2ncnc3ccc(NC4=NC(C)(C)CO4)cc23)ccc1Oc1ccn2ncnc2c1 [Tucatinib]	1.1 ± 0.022	1.09 ± 0.06	1.08 ± 0.041	1.09 ± 0.058	1.08 ± 0.047	1.08 ± 0.034	1.08 ± 0.033	1.09 ± 0.055	1.09 ± 0.045	1.05 ± 0.025	0.7801 ± 0.0053											
Cn1cc(-c2cc3c(N4CCN(c5ncc([C@@](C)(N)c6ccc(F)cc6)cn5)CC4)ncnn3c2)cn1 [Avapritinib]	0.9488 ± 0.004	0.959 ± 0.072	0.999 ± 0.047	0.989 ± 0.049	0.973 ± 0.061	0.978 ± 0.023	0.9338 ± 0.0068	0.911 ± 0.012	0.877 ± 0.03	0.7843 ± 0.0066	0.829 ± 0.026											
CC(C)(C)c1cc(NC(=O)Nc2ccc(-c3cn4c(n3)sc3cc(OCCN5CCOCC5)ccc34)cc2)no1 [Quizartinib]	1.05 ± 0.018	1.07 ± 0.038	1.07 ± 0.029	1.03 ± 0.042	1.06 ± 0.043	1.05 ± 0.04	1.06 ± 0.018	0.979 ± 0.04	0.932 ± 0.019	0.832 ± 0.045	0.528 ± 0.029											
O=C(Nc1cnn2ccc(N3CCC[C@@H]3c3cc(F)ccc3F)nc12)N1CC[C@H](O)C1 [Larotrectinib]	1.12 ± 0.03	1.16 ± 0.051	1.13 ± 0.057	1.08 ± 0.015	1.07 ± 0.047	1.11 ± 0.025	1.11 ± 0.028	1.06 ± 0.026	1.08 ± 0.03	1.08 ± 0.032	1.071 ± 0.0057											
Cc1nc(-c2cn3c(n2)-c2ccc(-c4cnn(C(C)(C)C(N)=O)c4)cc2OCC3)n(C(C)C)n1 [Taselisib]	0.978 ± 0.027	1.035 ± 0.0056	0.993 ± 0.043	0.9916 ± 0.0093	0.949 ± 0.021	0.833 ± 0.017	0.739 ± 0.018	0.676 ± 0.011	0.6 ± 0.023	0.454 ± 0.012	0.315 ± 0.016											
